{
  "source": "patent US20230108004A1",
  "about": "“TREATMENT OF EPILEPSY WITH PLINABULIN OR HALIMIDE OR DIKETOPIPERAZINE DERIVATIVES” (Katholieke Universiteit Leuven, priority 2017, published 2023)",
  "key": {"[1]": {"system": "PTZ-induced seizure behavior in zebrafish larvae", "test": "Zebrafish pentylenetetrazole (PTZ) seizure model, behavioral analysis", "format": "in vivo, zebrafish (Danio rerio)", "conditions": "2 hours incubation; for antiseizure activity of the separated enantiomers: S-enantiomer only significant at 200 μg/mL (p<0.01)", "protocol": "Experiments were performed as described in Copmans et al. (2018) Neurochem. Int. 112, 124-133; Afrikanova et al (2013) PLoS One 8, e54166 and Orellana-Paucar et al. (2012) Epilepsy Behav 24, 14-22. In brief, a single 7 dpf larva was placed in each well of a 96-well plate and treated with either VHC (1% DMSO) or test compound (1% DMSO) in a 100 μL volume. Larvae were incubated in dark for 2 hours at 28° C., whereafter 100 μL of either VHC (embryo medium) or 40 mM PTZ (20 mM working concentration) was added to each well. Next, within 5 minutes the 96-well plate was placed in an automated tracking device (ZebraBox Viewpoint, France) and larval behavior was video recorded for 30 minutes. The complete procedure was performed in dark conditions using infrared light. Total locomotor activity was recorded by ZebraLab software (Viewpoint, France) and expressed in actinteg units, which is the sum of pixel changes detected during the defined time interval (5 minutes). Larval behavior was depicted as mean actinteg units per 5 minutes during the 30 minute recording period and over consecutive time intervals. Data are expressed as mean±SD for single experiments with regards to screening and as mean±SEM for single experiments and for independent experiments of which the means or data are pooled.\nIn the first secondary screen three replicate wells were used per sample (100 μg/mL) tested and each experimental plate contained 12 internal control wells. In the second secondary screen six replicate wells were used per sample and concentration tested (100, 33, and 11 μg/mL), again 12 internal control wells were used per experimental plate."}, "zebrafish larvae": {"system": "zebrafish larvae", "test": "Zebrafish toxicity evaluation: maximum tolerated concentration (MTC)", "format": "in vivo, zebrafish (Danio rerio)", "conditions": "highest concentration without death, toxicity or locomotor impairment", "protocol": "Maximum tolerated concentration (MTC) was determined prior to further experiments and used as the highest test concentration. Experiments were performed as described in Copmans et al. (2018) Neurochem. Int. 112, 124-133. before. In brief, the MTC was investigated by exposing 12 larvae of 6 or 7 dpf to a range of concentrations in a 100 μL volume during 18 hours. The following parameters were investigated after 2 and 18 hours of exposure: touch response, morphology, posture, edema, signs of necrosis, swim bladder, and heartbeat. […] In case no MTC was reached, the highest soluble concentration was used.\nMaximum tolerated concentration (MTC) was determined prior to further experiments and used as the highest test concentration. Experiments were performed as described in Copmans et al. (2018). Neurochem. Int. 112, 124-133. In brief, the MTC was investigated by exposing 12 larvae of 7 dpf to a range of concentrations in a 100 μL volume during 18 hours. The following parameters were investigated after 2 and 18 hours of exposure: touch response, morphology, posture, edema, signs of necrosis, swim bladder, and heartbeat."}, "[2]": {"system": "PTZ-induced epileptiform discharges in zebrafish larvae", "test": "Zebrafish PTZ seizure model, electrophysiology (local field potential recordings from the optic tectum)", "format": "in vivo, zebrafish (Danio rerio)", "conditions": "2 hours, 10 min recording", "protocol": "Non-invasive LFP recordings were measured from the midbrain (optic tectum) of 7 dpf zebrafish larvae pre-incubated with VHC only, PTZ only, compound and VHC, or compound and PTZ [Zdebik, et al. (2013) PLoS One 8, 6e10. Experiments were performed as described in Copmans, et al. (2018) Neurochem. Int. 112, 124-133 and Copmans et al. (2018) ACS chemical neuroscience.]. In brief, larvae were incubated for approximately 2 hours with VHC (1% DMSO) or test compound (1% DMSO) in a 100 μL volume. After incubation, an equal volume of VHC (embryo medium) or 40 mM PTZ (20 mM working concentration) was added to the well for 15 minutes prior to recording. These steps occurred at 28° C., while further manipulation and electrophysiological recordings occurred at room temperature (±21° C.). The larva was embedded in 2% low melting point agarose (Invitrogen) and the signal electrode (an electrode inside a soda-glass pipet (1412227, Hilgenberg) pulled with a DMZ Universal Puller (Zeitz, Germany), diameter±20 microns, containing artificial cerebrospinal fluid (ACSF: 124 mM NaCl, 10 mM glucose, 2 mM KCl, 2 mM MgSO4, 2 mM CaCl2), 1.25 mM KH2PO4, and 26 mM NaHCO3, 300-310 mOsmols)) was positioned on the skin covering the optic tectum. A differential extracellular amplifier (DAGAN, USA) amplified the voltage difference between the signal (measured by the signal electrode) and the reference electrode. The differential signal was band pass filtered at 0.3-300 Hz and digitized at 2 kHz via a PCI-6251 interface (National instruments, UK) using WinEDR (John Dempster, University of Strathclyde, UK). A grounding electrode grounded the electrical system. All electrodes were connected with ACSF. Each recording lasted 600 seconds. Manual analysis was completed by quantification of the number, cumulative duration, and mean duration of epileptiform-like events with Clampfit 10.2 software (Molecular Devices Corporation, USA). An electrical discharge was considered epileptiform if it was a poly-spiking event comprising at least 3 spikes with a minimum amplitude of three times the baseline amplitude and a duration of at least 100 milliseconds. Data are expressed as mean±SD."}, "[3]": {"system": "EKP-induced seizure behavior in zebrafish larvae", "test": "Zebrafish ethyl ketopentenoate (EKP) seizure model, behavioral analysis", "format": "in vivo, zebrafish (Danio rerio)", "protocol": "Experiments were performed as described in Zhang et al. (2017) Sci. Rep. 7, 7195. In brief, a single 7 dpf larva was placed in each well of a 96-well plate and treated with either VHC (1% DMSO) or test compound (1% DMSO) in a 100 μL volume. Larvae were incubated in dark for 2 hours at 28° C., whereafter 100 μL of either VHC (1% DMSO) or 1 mM EKP (1% DMSO, 500 μM working concentration) was added to each well. Next, within 5 minutes the 96-well plate was placed in an automated tracking device (ZebraBox Viewpoint, France) and larval behavior was video recorded for 30 minutes. The complete procedure was performed in dark conditions using infrared light. Total locomotor activity was recorded by ZebraLab software (Viewpoint, France) and expressed in actinteg units, which is the sum of pixel changes detected during the defined time interval (5 minutes). Larval behavior was depicted as mean actinteg units per 5 minutes during the 30 minute recording period and over consecutive time intervals. Data are pooled from independent experiments and expressed as mean±SEM."}, "[4]": {"system": "drug-resistant psychomotor seizures induced by corneal electrical stimulation", "test": "Mouse 6-Hz (44 mA) psychomotor seizure model", "format": "in vivo, Male NMRI mice", "conditions": "30 min before stimulation, VHC 28 s", "protocol": "Experiments were performed as previously described. In brief, NMRI mice (average weight 32 g, range 28-36 g) were randomly divided into control and treatment groups (n=6-11). 50 μL (injection volume was adjusted to the individual weight) of VHC (PEG200:DMSO 1:1) or treatment (an ASD or test compound dissolved in VHC) was i.p. injected in mice and after 30 minutes psychomotor seizures were induced by low frequency, long duration corneal electrical stimulation (6 Hz, 0.2 ms rectangular pulse width, 3 s duration, 44 mA) using an ECT Unit 5780 (Ugo Basile, Comerio, Italy). Mice were manually restrained and a drop of ocular anesthetic (0.5% lidocaine) was applied to the corneas before stimulation. Following electrical current stimulation, the mouse was released in a transparent cage for behavioral observation, which was video-recorded. […] In addition, facial and mouth jerking as well as head nodding were observed occasionally. Seizure durations were measured during the experiment by experienced researchers, familiar with the different seizure behaviors. In addition, seizure durations were determined by blinded video analysis to confirm or correct the initial observations. Data are expressed as mean±SD."}, "[5]": {"system": "EKP-induced epileptiform discharges in zebrafish larvae", "test": "Zebrafish EKP seizure model, electrophysiology (local field potential recordings)", "format": "in vivo, zebrafish (Danio rerio)", "conditions": "12.5 μg/mL, 2 hours; 10 min recording; p≤0.05", "protocol": "Non-invasive LFP recordings were measured from the midbrain (optic tectum) of 7 dpf zebrafish larvae pre-incubated with VHC only, EKP only, compound and VHC, or compound and EKP. Larvae were incubated for approximately 2 hours with VHC (1% DMSO) or test compound (1% DMSO). After incubation, VHC (1% DMSO) or 1 mM EKP (1% DMSO, 500 μM working concentration) was added to the well for 15 minutes prior to recording. These steps occurred at 28° C., while further manipulation and electrophysiological recordings occurred at room temperature (±21° C.). The larva was embedded in 2% low melting point agarose (Invitrogen) and the signal electrode was positioned on the skin covering the optic tectum and electrophysiological recordings (room temperature) were performed as described above for the zebrafish PTZ seizure model and as described in Zhang et al. (2017) Sci. Rep. 7, 7195. Manual analysis was completed by quantification of the number, cumulative duration, and mean duration of epileptiform-like events with Clampfit 10.2 software (Molecular Devices Corporation, USA). An electrical discharge was considered epileptiform if it was a poly-spiking event comprising at least 3 spikes with a minimum amplitude of three times the baseline amplitude and a duration of at least 100 milliseconds. Data are expressed as mean±SD."}},
  "data": [
    {"smiles": "C=CC(C)(C)c1[nH]cnc1C=C1NC(=O)C(Cc2ccccc2)NC1=O", "note": "(single isomer, unassigned) [R-enantiomer]", "values": [
      {"measurement": "antiseizure activity of the separated enantiomers", "setting": "[1]", "result": "no significant effect"}
    ]},
    {"smiles": "C=CC(C)(C)c1nc[nH]c1/C=C1\\NC(=O)C(Cc2ccccc2)NC1=O", "note": "(single isomer, unassigned) [S-enantiomer]", "values": [
      {"measurement": "antiseizure activity of the separated enantiomers", "setting": "[1]", "result": "active"}
    ]},
    {"smiles": "C=CC(C)(C)c1nc[nH]c1/C=C1\\NC(=O)C(Cc2ccccc2)NC1=O", "note": "(stereo not drawn) [halimide]", "values": [
      {"measurement": "maximum tolerated concentration (MTC)", "setting": "zebrafish larvae", "result": 200, "unit": "µg/mL"},
      {"measurement": "cumulative duration of PTZ-induced epileptiform events", "setting": "[2]; MTC (200 μg/mL), p≤0.001", "result": "significantly lowered"},
      {"measurement": "lowering of the percentage of larvae with PTZ-induced epileptiform activity", "setting": "[2]; MTC (200 μg/mL), p≤0.001", "result": "~60", "unit": "%"},
      {"measurement": "number of PTZ-induced epileptiform events", "setting": "[2]; MTC (200 μg/mL), p≤0.001", "result": "significantly lowered"},
      {"measurement": "PTZ-induced seizure behavior", "setting": "[1]; halimide at its MTC, 30 min recording period, p≤0.05", "result": "significantly lowered"}
    ]},
    {"smiles": "CC(C)(C)c1[nH]cnc1/C=c1\\[nH]c(=O)/c(=C/c2ccccc2)[nH]c1=O", "note": "[plinabulin]", "values": [
      {"measurement": "number of PTZ-induced epileptiform events", "setting": "[2]; 12.5 μg/mL", "result": "non-significantly lowered"},
      {"measurement": "percentage of larvae with PTZ-induced epileptiform activity", "setting": "[2]; 12.5 μg/mL", "result": "non-significantly lowered"},
      {"measurement": "cumulative duration of PTZ-induced epileptiform events", "setting": "[2]; 12.5 μg/mL, p≤0.05", "result": "significantly lowered"},
      {"measurement": "PTZ-induced seizure behavior", "setting": "[1]; 1.56-12.5 μg/mL, 30 min recording, p≤0.01 (1.56), p≤0.001 (3.13, 6.25, 12.5) (FIG. 7A)", "result": "significantly lowered"},
      {"measurement": "PTZ-induced seizure behavior", "setting": "[1]; 12.5 and 3.13 μg/mL, 30 min recording period, p≤0.001 (FIG. 4C)", "result": "significantly lowered"},
      {"measurement": "normal swimming behavior in comparison to VHC-treated larvae", "setting": "[3]; 3.13, 6.25 and 12.5 μg/mL, compound+VHC, zebrafish EKP seizure model", "result": "significantly lowered"},
      {"measurement": "EKP-induced seizure behavior", "setting": "[3]; all concentrations tested (0.78-12.5 μg/mL), 2 hours incubation, 30 min recording (FIG. 7B)", "result": "significantly lowered"},
      {"measurement": "mean seizure duration", "setting": "[4]; 5 mg/kg i.p., not significant", "result": 21, "unit": "s"},
      {"measurement": "mean seizure duration", "setting": "[4]; 10 mg/kg i.p., p<0.05", "result": 12.5, "unit": "s"},
      {"measurement": "mean seizure duration", "setting": "[4]; 20 mg/kg i.p., p<0.01", "result": 15, "unit": "s"},
      {"measurement": "mean seizure duration", "setting": "[4]; 40 mg/kg i.p., p<0.05", "result": 15, "unit": "s"},
      {"measurement": "cumulative duration of EKP-induced epileptiform events", "setting": "[5]", "result": "significantly lowered"},
      {"measurement": "lowering of the percentage of larvae with EKP-induced epileptiform activity", "setting": "[5]", "result": 40, "unit": "%"},
      {"measurement": "number of EKP-induced epileptiform events", "setting": "[5]", "result": "significantly lowered"}
    ]}
  ]
}
